From patent EP4748841A1, “BICYCLO[5,6] IMIDAZOLE PYRIMIDONE DERIVATIVE AND PREPARATION METHOD THEREFOR AND USE THEREOF” (Shujing Biopharma Co., Ltd, priority 2023, dated 2025)

How the values were obtained:
Format in all cases: in vitro ADME
[1] = Liver microsome stability experiment (beagle dog); settings: for CLint scaled at 1 µM: beagle, dog, liver microsomes, pH 7.4, Beagle dog liver microsomes
Procedure: (§1) This experiment aimed to evaluate the phase I metabolic stability of the compounds of the present disclosure in liver microsomes of SD rats, beagle dogs, cynomolgus monkeys, and humans.
(§2) • (1) Buffer preparation: 73.21 g of dipotassium hydrogen phosphate trihydrate and 10.78 g of potassium dihydrogen phosphate were dissolved in 4000 mL of ultrapure water. The pH of the solution was adjusted to within 7.40 ± 0.10 using 10% phosphoric acid or 1 M potassium hydroxide, resulting in a final concentration of 100 mM. • (2) Solution preparation and dilution: Stock solutions of the test compounds at a concentration of 10 mM were prepared in dimethyl sulfoxide (DMSO) and stored at 4 °C, and they were diluted into 100 µM working solutions with pure acetonitrile when used. A stock solution of the control compound testosterone at a concentration of 10 mM was prepared in DMSO and stored at -20 °C, and it was diluted into a 400 µM working solution with pure acetonitrile when used. • (3) Termination solution preparation: The termination solution was an acetonitrile solution containing an internal standard (terfenadine). The prepared termination solution was stored in a refrigerator at 2-8 °C. • (4) Liver microsome solution preparation: Liver microsomes from various species (SD rat, beagle dog, cynomolgus monkey, and human) were diluted into 20× working solutions using 100 mM potassium phosphate buffer. The final concentration of the liver microsomes in the reaction system was 0.5 mg/mL. • (5) Reduced nicotinamide adenine dinucleotide phosphate (NADPH) regeneration system preparation: Appropriate amounts of nicotinamide adenine dinucleotide phosphate (NADP), glucose-6-phosphate (G6P), magnesium chloride (MgCl2), and glucose-6-phosphate dehydrogenase (G6PDH) were weighed to prepare stock solutions at concentrations of 65.33 mM, 330 mM, 300 mM, and 250 Units/mL, respectively. The four stock solutions described above were each added to an appropriate amount of buffer, and the mixture was mixed well by gently inverting up and down. The final concentrations of NADP, G6P, MgCl2, and G6PDH in the NADPH regeneration system were 2.65 mM, 10.2 mM, 6.12 mM, and 2.45 Units/mL, respectively. • (6) Incubation process: The incubation was completed in 96-well plates. Several incubation plates were prepared and named T0, T5, T10, T20, T40, T60, and NCF60, respectively. The first 6 plates corresponded to reaction time points of 0 min, 5 min, 10 min, 20 min, 40 min, and 60 min, respectively. The NCF60 plate was incubated for 60 min with potassium phosphate buffer replacing the NADPH regeneration system solution. Samples under all conditions were prepared in triplicate.
(§3) 2 µL of the test compound or control compound and 100 µL of microsome working solution (containing 1 mg/mL liver microsome protein) were added to each of the T0, T5, T10, T20, T40, T60, and NCF60 plates, and only the microsome working solution was added to the Blank 60 plate. The plates described above were then pre-incubated in a 37 °C water bath for about 10 min.
(§4) After the pre-incubation was completed, 98 µL of the NADPH regeneration system working solution was added to each sample well except for the NCF60 plate and the T0 plate to initiate the reaction, and 98 µL of potassium phosphate buffer was added to each well of the NCF60 plate. Therefore, for the sample wells containing the test sample or control substance working solution, the final concentrations of TC and testosterone in the reaction were 1 µM and 4 µM, respectively, the concentration of liver microsomes was 0.5 mg/mL, and the final concentrations of DMSO and acetonitrile in the reaction system were 0.01% (v/v) and 0.99% (v/v), respectively.
(§5) After incubation for an appropriate time (e.g., 5 min, 10 min, 20 min, 40 min, and 60 min), 600 µL of a termination solution (an acetonitrile solution containing 100 ng/mL […]) was added to each test compound sample well and control compound sample well to terminate the reaction. […]

[2] = Liver microsome stability experiment (SD rat); settings: for CLint scaled at 1 µM: SD, rat, liver microsomes, pH 7.4, SD rat liver microsomes
Procedure: as §1, §2, §3, §4, §5

[3] = Liver microsome stability experiment (cynomolgus monkey); settings: pH 7.4, Cynomolgus monkey liver microsomes, 0.5 mg/mL; for CLint scaled at 1 µM: cynomolgus monkey, liver microsomes
Procedure: as §1, §2, §3, §4, §5

[4] = Liver microsome stability experiment (human); settings: for CLint scaled at 1 µM: human, liver microsomes, pH 7.4, Human liver microsomes
Procedure: as §1, §2, §3, §4, §5

[5] = 0.5 mg/mL, 1 µM, read-out: CL(liver)
[6] = 0.5 mg/mL, 1 µM, read-out: CLint(liver)
[7] = read-out: Clearance rate classification

SMILES: COCCN1CCC(N(Cc2ccc(-c3ccc(C(F)(F)F)cc3)cc2)C(=O)Cn2c(SCc3cccc(F)c3F)cc(=O)c3ccccc32)CC1 [Rilapladib]
- CLint scaled at 1 µM [1, 5]: 8.8 mL/min/kg
- CLint scaled at 1 µM [1, 6]: 12.4 mL/min/kg
- CLint scaled at 1 µM [1, 7]: ≤ 13.2 mL/min/kg
- half-life at 1 µM ([1]; pH 7.4, Beagle dog liver microsomes, 0.5 mg/mL, 1 µM): 162 min
- CLint scaled at 1 µM [2, 5]: < 10.8 mL/min/kg
- CLint scaled at 1 µM [2, 6]: < 13.4 mL/min/kg
- CLint scaled at 1 µM [2, 7]: ≤ 23.7 mL/min/kg
- half-life at 1 µM ([2]; pH 7.4, SD rat liver microsomes, 0.5 mg/mL, 1 µM): > 186 min
- CLint scaled at 1 µM ([3]; read-out: CL(liver)): 39.8 mL/min/kg
- CLint scaled at 1 µM ([3]; read-out: CLint(liver)): 461 mL/min/kg
- half-life at 1 µM [3]: 4.06 min
- CLint scaled at 1 µM [4, 5]: 15.4 mL/min/kg
- CLint scaled at 1 µM [4, 6]: 60.3 mL/min/kg
- CLint scaled at 1 µM [4, 7]: > 48.3 mL/min/kg
- half-life at 1 µM ([4]; pH 7.4, Human liver microsomes, 0.5 mg/mL, 1 µM): 20.7 min
